Read-outs that look alike come from different tables or passages of the source.
How the values were obtained:
Mnk1 = Mnk1 (Homo sapiens (Human), UniProt Q9BUB5); assay: Mnk1 kinase inhibition, ADP-Glo ADP monitoring assay; assay type: biochemical; conditions: for IC50: read-out: Mnk1 IC50
Experimental: (§1) The synthesized compounds then were tested for inhibition of the kinase activity (IC50) of Mnk1 and/or Mnk2 using the ADP monitoring assay for kinases described in Zegzouti, H.; Zdanovskaia, M.; Hsiao, K.; Goueli, S. A., ADP-Glo: A Bioluminescent and homogeneous ADP monitoring assay for kinases.

Mnk2 = Mnk2 (Homo sapiens (Human), UniProt Q9HBH9); assay: Mnk2 kinase inhibition, ADP-Glo ADP monitoring assay; assay type: biochemical; conditions: ADP-Glo kinase assay
Experimental: as §1

[1] = read-out: Mnk2 inhibition IC50 (+,++,+++)

Chain of Mnk1 (Q9BUB5 whole entry): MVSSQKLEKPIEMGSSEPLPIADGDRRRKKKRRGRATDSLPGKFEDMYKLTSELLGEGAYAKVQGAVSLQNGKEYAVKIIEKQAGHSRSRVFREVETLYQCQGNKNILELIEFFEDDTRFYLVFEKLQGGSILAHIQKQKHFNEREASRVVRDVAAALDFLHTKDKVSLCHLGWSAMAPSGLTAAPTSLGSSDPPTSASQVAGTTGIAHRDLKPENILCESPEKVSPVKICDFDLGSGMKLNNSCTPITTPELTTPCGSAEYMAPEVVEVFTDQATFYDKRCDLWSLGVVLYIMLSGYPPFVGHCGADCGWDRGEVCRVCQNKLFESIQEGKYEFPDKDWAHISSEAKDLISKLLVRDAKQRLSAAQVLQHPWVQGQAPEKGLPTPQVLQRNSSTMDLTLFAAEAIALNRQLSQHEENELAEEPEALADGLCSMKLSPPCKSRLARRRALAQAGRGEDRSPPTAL
Chain of Mnk2 (Q9HBH9 whole entry): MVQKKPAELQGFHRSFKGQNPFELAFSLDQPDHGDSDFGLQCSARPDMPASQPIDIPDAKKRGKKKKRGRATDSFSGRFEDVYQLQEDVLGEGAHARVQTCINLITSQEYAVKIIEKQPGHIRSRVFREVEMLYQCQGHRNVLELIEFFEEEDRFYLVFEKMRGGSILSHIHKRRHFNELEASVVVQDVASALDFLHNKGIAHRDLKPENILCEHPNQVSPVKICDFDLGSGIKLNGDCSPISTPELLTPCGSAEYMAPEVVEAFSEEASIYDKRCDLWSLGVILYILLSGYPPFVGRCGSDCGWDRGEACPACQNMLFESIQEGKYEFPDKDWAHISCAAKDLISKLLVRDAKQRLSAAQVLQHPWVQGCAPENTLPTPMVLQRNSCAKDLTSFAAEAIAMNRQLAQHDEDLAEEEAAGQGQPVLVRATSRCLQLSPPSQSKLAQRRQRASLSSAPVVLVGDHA

c1ccc2c(c1)NCCN2c1ccnc(NCCc2ccncc2)n1 [NUCC-0175722]
IC50 (Mnk1): 1.2 µM
IC50 (Mnk2; read-out: Mnk2 IC50): 0.25 µM

c1cnc2ncn(-c3ccnc(NCCc4ccncc4)n3)c2c1 [NUCC-0176138]
IC50 (Mnk1): 8.5 µM
IC50 (Mnk2; read-out: Mnk2 IC50): 6 µM

c1cnc2ncn(-c3ccnc(NC4CCOC4)n3)c2c1 (stereo not drawn) [NUCC-0176142]
IC50 (Mnk1): 13 µM
IC50 (Mnk2; read-out: Mnk2 IC50): 5.3 µM

c1cc(CCNc2nccc(-n3cnc4cnccc43)n2)ccn1 [NUCC-0176143]
IC50 (Mnk1): 4.3 µM
IC50 (Mnk2; read-out: Mnk2 IC50): 1.1 µM

OC1CCC(Nc2nccc(-n3cnc4ccccc43)n2)CC1 (stereo not drawn) [NUCC-0176145]
IC50 (Mnk1): 0.4 µM
IC50 (Mnk2; read-out: Mnk2 IC50): 0.052 µM

c1ccc2c(c1)ncn2-c1ccnc(NN2CCOCC2)n1 [NUCC-0176146]
IC50 (Mnk1): 12 µM
IC50 (Mnk2; read-out: Mnk2 IC50): 1 µM

OC1CCCC1Nc1nccc(-n2cnc3ccccc32)n1 (stereo not drawn) [NUCC-0176147]
IC50 (Mnk1): 0.45 µM
IC50 (Mnk2; read-out: Mnk2 IC50): 0.082 µM

c1ccc2c(c1)ncn2-c1ccnc(N[C@@H]2CCOC2)n1 [NUCC-0176149]
IC50 (Mnk2; read-out: Mnk2 IC50): 0.094 µM

c1ccc2c(c1)ncn2-c1ccnc(NC2COC2)n1 [NUCC-0176150]
IC50 (Mnk1): 0.42 µM
IC50 (Mnk2; read-out: Mnk2 IC50): 0.09 µM

c1ccc2c(c1)ncn2-c1ccnc(NC2CCCOC2)n1 (stereo not drawn) [NUCC-0176151]
IC50 (Mnk1): 0.39 µM
IC50 (Mnk2; read-out: Mnk2 IC50): 0.044 µM

c1cc2c(cn1)ncn2-c1ccnc(NC2CCOC2)n1 (stereo not drawn) [NUCC-0176152]
IC50 (Mnk1): 1.6 µM
IC50 (Mnk2; read-out: Mnk2 IC50): 1.3 µM

COC1CCC(Nc2nccc(-n3cnc4ccccc43)n2)CC1 (stereo not drawn) [NUCC-0176153]
IC50 (Mnk1): 0.48 µM
IC50 (Mnk2; read-out: Mnk2 IC50): 0.081 µM

O[C@@H]1CC[C@@H](Nc2nccc(-n3cnc4ccccc43)n2)C1 [NUCC-0176165]
IC50 (Mnk1): 0.34 µM
IC50 (Mnk2; read-out: Mnk2 IC50): 0.061 µM

OC1CCC(Nc2nccc(-n3cnc4ccccc43)n2)CC1 (stereo not drawn) [NUCC-0176166]
IC50 (Mnk1): 0.39 µM
IC50 (Mnk2; read-out: Mnk2 IC50): 0.063 µM

COC1CCC(Nc2nccc(-n3cnc4ccccc43)n2)CC1 (stereo not drawn) [NUCC-0176167]
IC50 (Mnk1): 0.3 µM
IC50 (Mnk2; read-out: Mnk2 IC50): 0.06 µM

c1ccc2c(c1)OCCN2c1ccnc(NCCc2ccncc2)n1 [NUCC-0176230]
IC50 (Mnk1): 5.1 µM
IC50 (Mnk2; read-out: Mnk2 IC50): 3.5 µM

c1ccc2c(c1)CCN2c1ccnc(N[C@H]2CCOC2)n1 [NUCC-0176231]
IC50 (Mnk1): 1.1 µM
IC50 (Mnk2; read-out: Mnk2 IC50): 0.38 µM

c1ccc2c(c1)CCN2c1ccnc(N[C@@H]2CCOC2)n1 [NUCC-0176232]
IC50 (Mnk1): 4.6 µM
IC50 (Mnk2; read-out: Mnk2 IC50): 2.3 µM

c1ccc2c(c1)CCN2c1ccnc(NCCc2ccncc2)n1 [NUCC-0176233]
IC50 (Mnk1): 8.5 µM
IC50 (Mnk2; read-out: Mnk2 IC50): 4.7 µM

Fc1cnc(NCCc2ccncc2)nc1-n1ccc2ccccc21 [NUCC-0176283]
IC50 (Mnk1): 8.7 µM
IC50 (Mnk2; read-out: Mnk2 IC50): 10 µM

c1ccc2c(c1)ncn2-c1cc(NCCc2ccncc2)ncn1 [NUCC-0176284]
IC50 (Mnk1): 2.6 µM
IC50 (Mnk2; read-out: Mnk2 IC50): 1.2 µM

c1ccc2c(c1)ccn2-c1cc(NCCc2ccncc2)ncn1 [NUCC-0176285]
IC50 (Mnk1): 4.7 µM
IC50 (Mnk2; read-out: Mnk2 IC50): 6 µM

c1ccc2c(c1)ncn2-c1cc(NCCc2ccncc2)cnn1 [NUCC-0176338]
Mnk1 IC50 (Mnk1): no activity
Mnk2 IC50 (Mnk2): no activity

c1ccc2c(c1)c1ccccc1n2-c1ccnc(NCCc2ccncc2)n1 [NUCC-0176339]
IC50 (Mnk1): 11 µM
IC50 (Mnk2; read-out: Mnk2 IC50): 10 µM

c1cncc(CCNc2nccc(-n3cnc4ccccc43)n2)c1 [NUCC-0176340]
IC50 (Mnk1): 0.55 µM
IC50 (Mnk2; read-out: Mnk2 IC50): 0.069 µM

COCCNc1nccc(-n2cnc3ccccc32)n1 [NUCC-0176342]
IC50 (Mnk1): 1.6 µM
IC50 (Mnk2; read-out: Mnk2 IC50): 0.2 µM

O=C1CCCN1CCCNc1nccc(-n2cnc3ccccc32)n1 [NUCC-0176344]
IC50 (Mnk1): 7.2 µM
IC50 (Mnk2; read-out: Mnk2 IC50): 0.78 µM

O=C1CCCN1CCCNc1ccnc(-n2cnc3ccccc32)n1 [NUCC-0176345]
IC50 (Mnk1): 10 µM
IC50 (Mnk2; read-out: Mnk2 IC50): 2.6 µM

c1ccc2c(c1)cnn2-c1ccnc(NCCc2ccncc2)n1 [NUCC-0176346]
IC50 (Mnk1): 5.4 µM
IC50 (Mnk2; read-out: Mnk2 IC50): 4.7 µM

c1ccc2c(c1)cnn2-c1nccc(NCCc2ccncc2)n1 [NUCC-0176347]
IC50 (Mnk1): 8.1 µM
IC50 (Mnk2; read-out: Mnk2 IC50): 5.6 µM

CC(O)CNc1ccnc(-n2cnc3ccccc32)n1 (stereo not drawn) [NUCC-0176348]
IC50 (Mnk1): 0.71 µM
IC50 (Mnk2; read-out: Mnk2 IC50): 0.13 µM

Nc1ccnc(-n2cnc3ccccc32)n1 [NUCC-0176349]
IC50 (Mnk1): 4.1 µM
IC50 (Mnk2; read-out: Mnk2 IC50): 1.4 µM

O=c1c2ccccc2nnn1-c1ccnc(NCCc2ccncc2)n1 [NUCC-0176350]
Mnk1 IC50 (Mnk1): no activity
Mnk2 IC50 (Mnk2): no activity

O=C(Nc1ccccc1)Nc1nccc(-n2cnc3ccccc32)n1 [NUCC-0176351]
Mnk1 IC50 (Mnk1): no activity
Mnk2 IC50 (Mnk2): no activity

OCCNc1nccc(-n2cnc3ccccc32)n1 [NUCC-0176352]
IC50 (Mnk1): 0.65 µM
IC50 (Mnk2; read-out: Mnk2 IC50): 0.17 µM

O=c1oc2ccccc2n1-c1ccnc(NCCc2ccncc2)n1 [NUCC-0176353]
IC50 (Mnk1): 9.5 µM
IC50 (Mnk2; read-out: Mnk2 IC50): 6.8 µM

Brc1cnc(NCCc2ccncc2)nc1-n1ccnc1 [NUCC-0196229]
IC50 (Mnk2; unit inferred, read-out: Mnk2 IC50): 1.2 µM

OC1CCN(c2ncc(Cl)c(-n3cnc4ccccc43)n2)CC1 [NUCC-0200781]
IC50 (Mnk2; [1]): < 1 µM

N#Cc1cnc(-n2cnc3ccccc32)nc1NCCCc1ccncc1 [NUCC-0200914]
IC50 (Mnk2; [1]): < 1 µM

NC1CC(Oc2ncc(-c3ccccc3OC(F)(F)F)c(-n3cnc4ccccc43)n2)C1 (stereo not drawn) [NUCC-0201898, 3-((4-(1H-benzo[d]imidazol-1-yl)-5-(2-(trifluoromethoxy)phenyl)pyrimidin-2-yl)oxy)cyclobutan-1-amine]
IC50 (Mnk2; [1]): < 1 µM

Source: patent US10851082B2, “Substituted aromatic n-heterocyclic compounds as inhibitors of mitogen-activated protein kinase interacting kinase 1 (MNK1) and 2 (MNK2)” (Northwestern University, priority 2015, dated 2020)
